Patent publication US20250230413A1, “METHODS AND SYSTEMS FOR THE CULTURE OF CELLS AT LIQUID-LIQUID INTERFACES” (Queen Mary University of London, priority 2022, published 2025)

Tests used:
[1] = system: iPSCs; test: Cardiomyocyte differentiation of iPSCs on βLG-SMCC-VN microdroplets or EBs, flow cytometry of TNNT2+; format: cell-based, human; conditions: differentiation initiated 2 days after seeding, CDM3 medium
Description: Embryoid bodies Formation. Polyvinyl alcohol (PVA) was dissolved in E8 flex medium overnight to achieve a concentration of 4% PVA. This was then filtered and supplemented with 10 μM Y-27632. iPSCs were dissociated with Gentle Cell Dissociation Reagent according to manufacturer's instructions. After centrifugation, cells were counted. An aliquot of the cell suspension is then taken and centrifuged at 120×g for 3 minutes. The cell pellet was then resuspended in E8 flex with PVA and Y-27632 to achieve a cell concentration of 1×10^6 cells/mL. A petri dish was then filled with sterile water. The lid was then placed upside down and multiple 10 μL drops of the cell suspension was then placed on the lid. The lid was then placed back on the petri dish resulting in hanging droplets. After 24 hours, 30 embryoid bodies were transferred to a well of an ultra-low attachment 6-well plate filled with E8 flex medium.
Cardiomyocyte Differentiation. The iPSCs were seeded on microdroplets and tissue culture plastic controls in E8 flex medium supplemented with Y-27632, a ROCK inhibitor. After 24 hours, the medium was replaced with E8 flex medium. […]
Flow Cytometry. […] Cells were then counted and stained with the staining solution for surface markers. […] Stained cells were analysed with BD LSRII. […] The data was analysed using FlowJo software.

[2] = system: MSCs; test: Growth of MSCs at crosslinked βLG and BSA nanosheets (Novec 7500 interfaces); format: cell-based, human; conditions: MSCs growing for 5 days; interfaces crosslinked by sulfo-SMCC (1 mg/ml, pH 7.4), fibronectin coupled
Description: (§1) Human Bone Marrow Derived Mesenchymal Stem Cell culture and seeding. hBM-MSCs were purchased from PromoCell and cultured according to the supplier's recommendations.
Generation of fluorinated pinned droplets for cell culture. Thin glass slides (25×60 mm, VWR) were washed with isopropanol and dried under nitrogen, prior to plasma oxidation for 10 min (Henniker Plasma HPT-200). Slides were then placed into an anhydrous ethanol solution (9.5 mL) containing trichloro-1H,1H,2H,2H-perfluorooctyl silane (97%, Sigma-Aldrich) (500 μL) for 1 h, at room temperature. The fluorinated glass slides were cut into chips (1×1 cm) and placed into a 24 well plate (for Hoechst staining), or the glass slides were kept at their original dimensions and embedded on sticky-slide 8 wells plates (Ibidi), for imaging on a confocal microscope. After sterilization with 70% ethanol, the wells were washed (once) and then filled with 2 mL (or 600 μL for the sticky wells) of PBS (pH 7.4 for βLG, Fibrinogen and different BSA types, and pH 10.5 for poly(L-lysine), PLL). 100 μL of fluorinated oil (or 10 μL for the sticky wells), with or without fluorinated surfactant (10 μg/mL) were added to the surface of the glass slide, forming a fluorinated pinned droplet. For samples prepared in 24 well plates, 30 μL of the oil phase was removed using a micropipette, to form a flatter oil droplet. […]
Immuno-fluorescence staining.

[3] = system: HEK293T cells; conditions: HEK293T on BSA interfaces for 22 days
Description: Cell seeding on emulsions. HEK293T cells, human iPSCs, Human primary keratinocytes and human MSCs were cultured according to manufacturer's instructions. For cell culture, 500 μL of corresponding medium was transferred per well in a 24 well plate treated with 25 μg/mL poly(L-lysine)-graft-polyethylene glycol (PLL-g-PEG, SuSoS). Then, 100 μL of emulsion were transferred per well. Different cell densities were used depending on the cell type. Being 10^4 cells/well for HEK293T, 4×10^4 cells/well for iPSCs, and 4×10^4 cells/well for MSCs.
Proliferation assay CCK8. Proliferation assays were performed using the Cell Counting Kit-8 (Dojindo, Kumamoto, Japan). HEK293T growing on emulsions were incubated with 100 μl CCK-8 reagent for 4 hours at 37° C. over different time-points, and optical density at 450 nm was measured.

[4] = system: MSCs; test: Scale-up growth of MSCs on fluorinated oil/MA-BSA bioemulsions in 250 ml flask; format: cell-based, human; conditions: 15 days, 250 ml flask under agitation
Description: as §1
RGD peptide coupling to biofunctionalised BSA. For the preparation of emulsions, RGD peptide coupling to functionalized BSA molecules was performed first. RGD peptide concentration was determined for each functionalized BSA formulation to enable coupling of 10 peptides per BSA molecule. Custom peptides were designed to allow reaction with functional groups in the modified BSA backbone. GCGGRGDSPG peptide was coupled to NB-BSA via […] in the presence of 1% lithium phenyl-2,4,6-trimethylbenzoylphosphinate (LAP, Sigma-Aldrich), crosslinking was performed with 405 nm blue light for 3 min. at 20 mW/cm2. CGGRGDSPG peptide was conjugated to AC-BSA and MA-BSA via […] in PBS pH 9 for at least 3 hours. The same procedure was used for FITC-RGD bearing peptides.
Conical flask bioreactor scale-up. Scale up of the MA-BSA bioemulsions system was performed on 250 ml polycarbonate Erlenmeyer flasks (Corning) with Vent caps, using a total amount of medium of 50 ml. […] Cell numbers/surface area used in bioemulsions and 2D conditions were the same (1000 cells/cm^2) and calculated assuming and average diameter of 100 μm for the bioemulsions. […]

Cc1c[nH]c(-c2cnc(NCCNc3ccc(C#N)cn3)nc2-c2ccc(Cl)cc2Cl)n1 [CHIR99021]
Percentage of TNNT2+ (whether differentiation works) ([1]; CHIR99021 6 μM, varying Wnt-C59): consistently works across conditions except for 230 μm microdroplets when 5 μM of Wnt-C59 is used
Percentage of TNNT2+ (whether differentiation works) ([1]; higher CHIR99021 concentration (above 6 μM)): only works for microdroplets and only when followed by 5 μM Wnt-C59

Bovine Serum Albumin [BSA]
cell adhesion to the interface (vinculin staining) [2]: excellent cell adhesion
proliferation after long-term culture [3]: high proliferation

MS-BSA: methacrylated BSA
coverage of bioemulsion surface by cells [4]: cells cover all the available surface of the bioemulsions
